This experiment concerns the target T1, PDK-1 (Homo sapiens, UniProt O15530).
T1 sequence (O15530 1-556): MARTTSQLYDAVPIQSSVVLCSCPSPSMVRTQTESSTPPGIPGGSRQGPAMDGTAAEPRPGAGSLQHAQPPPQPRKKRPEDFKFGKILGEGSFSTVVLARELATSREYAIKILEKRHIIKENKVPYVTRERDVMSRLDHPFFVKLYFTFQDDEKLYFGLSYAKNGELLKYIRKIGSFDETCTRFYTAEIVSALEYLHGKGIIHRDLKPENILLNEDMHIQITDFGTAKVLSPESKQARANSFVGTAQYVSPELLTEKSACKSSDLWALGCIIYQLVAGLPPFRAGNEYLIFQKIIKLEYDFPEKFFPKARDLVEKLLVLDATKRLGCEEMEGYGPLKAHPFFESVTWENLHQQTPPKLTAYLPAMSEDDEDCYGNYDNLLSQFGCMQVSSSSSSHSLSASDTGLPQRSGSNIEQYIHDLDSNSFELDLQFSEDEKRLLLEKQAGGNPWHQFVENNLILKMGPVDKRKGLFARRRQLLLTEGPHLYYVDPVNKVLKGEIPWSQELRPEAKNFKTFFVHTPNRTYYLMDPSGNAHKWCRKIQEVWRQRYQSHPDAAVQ
Nature of the experiment: PDK-1 kinase inhibition ELISA assay (phosphorylation of His6-tagged SGK1 S422D by PDK-1). In kind it is biochemical. The note with it: in vitro ELISA; phosphorylation of His6-tagged SGK1 (S422D) on Thr256 by PDK-1, 20 minutes, chemiluminescent detection. The procedure:
The ability of an illustrative Pyrimido[5,4-c]quinoline-2,4-diamine Derivative to inhibit PDK-1 in vitro can be determined using an ELISA assay as described in Kobayashi et al., Biochem. J. 339:319-328 (1999) and Park et al., EMBO J. 18:3024-3033 (1999).
In an in vitro assay, His6-tagged SGK1 with S422D mutation (formerly Upstate Biotech, now Millipore) on Thr256 is allowed to be phosphorylated by PDK-1 in the presence of a Pyrimido[5,4-c]quinoline-2,4-diamine Derivative. After 20 minutes, the reaction is quenched via the addition of urea. The His6-tagged SGK1 is then bound to 96 well Ni-NTA HisSorb plates (Quiagen, Inc.) and phosphorylated SGK1 is quantitatively detected using rabbit derived anti-phospho SGK antibody (Cell Signaling Technology) as the primary antibody and horseradish peroxidase (HRP)— coupled anti-rabbit antibody (formerly Zymed, now Invitrogen) as the secondary antibody. HRP is then detected using a chemiluminescent substrate (Pierce Chemical Co.).
IC50 values of illustrative Pyrimido[5,4-c]quinoline-2,4-diamine Derivatives, shown in Table 4, are calculated using LSW Data Analysis package add-in for Excel (Microsoft).
(ELISA stands for enzyme-linked immunosorbent assay.)

The structures appear in SMILES notation.

16 compounds from patent US20080234300A1, “Pyrimido[5,4-c] Quinoline-2, 4-Diamine Derivatives and Methods of Use Thereof” (WYETH, priority 2007, published 2008) can be followed below.

Compound `COCCOc1cc2ncc3c(N)nc(N4CCC(O)C4)nc3c2cc1OC` (stereo not shown) [Compound Ia-6, 1-[4-Amino-9-methoxy-8-(2-methoxyethoxy)pyrimido[5,4-c]quinolin-2-yl]pyrrolidin-3-ol] had an IC50 of 36.3 µM.

On to `COc1cc2ncc3c(N)nc(N)nc3c2cc1OC` [Ia-1, 8,9-dimethoxypyrimido[5,4-c]quinoline-2,4-diamine], for which inhibition was half-maximal at 12.2 µM (IC50).

Compound `CCOc1cc2ncc3c(N)nc(N)nc3c2cc1OCC` [Ia-2, 8,9-diethoxypyrimido[5,4-c]quinoline-2,4-diamine] had a concentration for half-maximal inhibition (IC50) of 18 µM.

Regarding `CCOc1cc2ncc3c(N)nc(N4CCOCC4)nc3c2cc1OCC` [Ia-4, 8,9-diethoxy-2-morpholin-4-ylpyrimido[5,4-c]quinolin-4-amine], inhibition was half-maximal at 55.7 µM (IC50).

In turn, `COCCOc1cc2ncc3c(N)nc(N4CCOCC4)nc3c2cc1OC` [Ia-5, 9-methoxy-8-(2-methoxyethoxy)-2-morpholin-4-ylpyrimido[5,4-c]quinolin-4-amine] displayed an IC50 of more than 200 µM.

Compound `COCCOc1cc2ncc3c(N)nc(N4CCN(C)CC4)nc3c2cc1OC` [Ia-7, 9-methoxy-8-(2-methoxyethoxy)-2-(4-methylpiperazin-1-yl)pyrimido[5,4-c]quinolin-4-amine] displayed an IC50 of more than 200 µM.

In turn, `COCCOc1cc2ncc3c(N)nc(N(C)C)nc3c2cc1OC` [Ia-8, 9-methoxy-8-(2-methoxyethoxy)-N2,N2-dimethylpyrimido[5,4-c]quinoline-2,4-diamine] registered an IC50 of 9.33 µM.

For the compound `CCNc1nc(N)c2cnc3cc(OCCOC)c(OC)cc3c2n1` [Ia-9, N2-ethyl-9-methoxy-8-(2-methoxyethoxy)pyrimido[5,4-c]quinoline-2,4-diamine], the IC50 was more than 200 µM.

As for `COCCOc1cc2ncc3c(N)nc(N4CCC5(CC4)OCCO5)nc3c2cc1OC` [Ia-10, 2-(1,4-dioxa-8-azaspiro[4.5]dec-8-yl)-9-methoxy-8-(2-methoxyethoxy)pyrimido[5,4-c]quinolin-4-amine], the IC50 amounted to 50.5 µM.

Consider `COCCOc1cc2ncc3c(N)nc(N4CCC(=O)CC4)nc3c2cc1OC` [Ia-13, 1-[4-amino-9-methoxy-8-(2-methoxyethoxy)pyrimido[5,4-c]quinolin-2-yl]piperidin-4-one], for which the IC50 is more than 200 µM.

Compound `COCCOc1cc2ncc3c(N)nc(N4CCCC4)nc3c2cc1OC` [Ia-14, 9-methoxy-8-(2-methoxyethoxy)-2-pyrrolidin-1-ylpyrimido[5,4-c]quinolin-4-amine] registered an IC50 of 6.55 µM.

The compound `COCCOc1cc2ncc3c(N)nc(N4CCC[C@@H]4COC)nc3c2cc1OC` [Ia-15, 9-methoxy-8-(2-methoxyethoxy)-2-[(2R)-2-(methoxymethyl)pyrrolidin-1-yl]pyrimido[5,4-c]quinolin-4-amine] had an IC50 of 2.15 µM.

In the case of `COCCOc1cc2ncc3c(N)nc(N4CCC[C@H]4COC)nc3c2cc1OC` [Ia-16, 9-methoxy-8-(2-methoxyethoxy)-2-[(2S)-2-(methoxymethyl)pyrrolidin-1-yl]pyrimido[5,4-c]quinolin-4-amine], the IC50 was found to be 39.6 µM.

Consider `COCCOc1cc2ncc3c(N)nc(NC4CCCCC4)nc3c2cc1OC` [Ia-17, N2-cyclohexyl-9-methoxy-8-(2-methoxyethoxy)pyrimido[5,4-c]quinoline-2,4-diamine], for which 5.43 µM corresponded to half-maximal inhibition (IC50).

`COCCOc1cc2ncc3c(N)nc(N4CCN(c5ccccc5)CC4)nc3c2cc1OC` [Ia-18, 9-methoxy-8-(2-methoxyethoxy)-2-(4-phenylpiperazin-1-yl)pyrimido[5,4-c]quinolin-4-amine] showed a 50% inhibitory concentration (IC50) of 111 µM.

`COCCOc1cc2ncc3c(N)nc(N4CCOc5ccccc5C4)nc3c2cc1OC` [Ia-20, 2-(2,3-dihydro-1,4-benzoxazepin-4(5H)-yl)-9-methoxy-8-(2-methoxyethoxy)pyrimido[5,4-c]quinolin-4-amine] showed an IC50 of 83.1 µM.

In general, IC50 refers to the concentration needed to halve the response being measured. Read a low IC50 as higher potency.
